{"source": "patent US20040043055A1", "about": "(AJINOMOTO CO. INC., priority 2002, published 2004)", "key": {"[1]": {"experiment": "Example 1: body weight of mice on high fat diet containing L-glutamine, with or without treadmill exercise", "type": "in vivo, C57BL/6J mice", "method": "(§1) Fifty male C57BL/6J mice, 9 weeks old, were used herein. […] The experiment was conducted for 16 weeks. The mice exercised on a treadmill at moderate intensity (at 4.0 m/min) for 30 minutes a day, 5 days a week. It is known that oxygen consumption (VO2) strongly correlates with exercise intensity. However, VO2 reaches the plateau at a certain point as exercise intensity increases, which is defined as maximum oxygen consumption (VO2max). Percentage of maximum oxygen consumption (% VO2max) is one of the common ways to indicate the exercise intensity. According to Schefer V. and Talan M. I. (Exp. Gerontol. 31:387 (1996)), a running speed of 3-4 m/min which was the same intensity of exercise used herein produced a VO2 equivalent to 54-58% of the VO2max in adult C57BL/6J mice. In 16 weeks of the experiment, plasma and liver samples were obtained after overnight starvation.\nRelative body weight to the LF group in week 5, 10, and 16 are shown in FIGS. 1, 2, and 3, respectively.\nApplying to a human, assuming a life span of 70 years, 10 weeks and 4 months for mice correspond to 7 and 12 years for a human, respectively."}, "[2]": {"experiment": "Example 1: fasting plasma insulin concentration in week 16", "type": "in vivo, C57BL/6J mice", "details": "FIG. 4", "method": "as §1"}, "[3]": {"experiment": "Example 1: liver glycogen content after starvation in week 16", "type": "in vivo, C57BL/6J mice", "details": "24 h starvation, L-glutamine plus exercise, FIG. 5", "method": "The results of glycogen contents in the liver after starvation were the same trends as plasma insulin concentrations (FIG. 5).\nas §1"}, "[4]": {"experiment": "Example 2: body weight, epididymal fat and abdominal fats after 6 weeks of high fat diet containing L-glutamine", "type": "in vivo, C57BL/6J mice", "details": "high fat diet containing 3.6% or 6.0% of L-glutamine", "method": "Forty of male C57BL/6J mice, age 5 weeks, were used herein. […] After 6 weeks of the diet feedings, body weight and epididymal fat weight were measured."}, "[5]": {"experiment": "Solubility limit of L-glutamine in liquid product", "type": "physicochemical"}}, "data": [{"smiles": "NC(=O)CC[C@H](N)C(=O)O", "note": "[L-glutamine]", "values": [{"measurement": "body weight gain by high fat feeding", "setting": "[1]; week 5, exercise groups, 6.0% L-glutamine plus exercise (6Q+EX) vs HF+EX, FIG. 1", "value": "prevented considerably"}, {"measurement": "rate of body weight gain", "setting": "[1]; week 5, non-exercise groups, high fat diet containing 6.0% of L-glutamine (6Q) vs HF, FIG. 1", "value": "did not reduce the rate of body weight gain"}, {"measurement": "synergistic effect of L-glutamine and exercise on body weight gain", "setting": "[1]; week 10, 6Q+EX, FIG. 2", "value": "synergistic effect lasted for 10 weeks"}, {"measurement": "combined effects on body weight", "setting": "[1]; week 16, 6Q+EX compared to HF+EX, FIG. 3", "value": "combined effects disappeared in week 16, although lower body weight was still observed"}, {"measurement": "plasma insulin concentrations", "setting": "[2]; L-glutamine administration alone, high fat feeding", "value": "reduced plasma insulin concentrations"}, {"measurement": "plasma insulin concentrations", "setting": "[2]; combination of L-glutamine administration and exercise", "value": "the lowest and was close to that of LF group"}, {"measurement": "remaining glycogen content in the liver after starvation", "setting": "[3]", "value": "the lowest"}, {"measurement": "weights of abdominal fats", "setting": "[4]", "value": "decreased in a dose-dependent manner"}, {"measurement": "weights of epididymal fat", "setting": "[4]; FIG. 7", "value": "decreased in a dose-dependent manner"}, {"measurement": "rates of body weight gain", "setting": "[4]; no exercise, FIG. 6", "value": "reduced by L-glutamine administrations in a dose-dependent manner"}, {"measurement": "solubility limit", "setting": "[5]; 0° C.", "value": 8.3, "unit": "g per 473 milliliters"}, {"measurement": "solubility limit", "setting": "[5]; 18° C.", "value": 12.3, "unit": "g per 473 milliliters"}, {"measurement": "solubility limit", "setting": "[5]; 30° C.", "value": 22.7, "unit": "g per 473 milliliters"}]}]}
